Results taken from US20250154179A1, “GOLD (I) GEFITINIB DERIVATIVES AND PREPARATION METHOD AND APPLICATION THEREOF” (TONGJI HOSPITAL, TONGJI MEDICAL COLLEGE, HUAZHONG …, priority 2023, published 2025).

What was measured:
[1] = test system: Gefitinib-resistant lung cancer cells; assay: mitochondrial damage, oxidative stress and ferroptosis in resistant cells; type: cell-based
Procedure: (§1) The present invention further provides an application of a gold (I) Gefitinib derivative, mainly providing the study of the effect of Embodiment 8 (L1Au2 for short). […] L1Au2 is mainly used to treat lung cancer resistant to first- and second-generation EGFR-TKI. In vitro experiments on L1Au2 were conducted against Gefitinib-sensitive and Gefitinib-resistant lung cancer. […] The cell lines used in the experiment are internationally universal lung cancer tumor cell lines: Gefitinib-sensitive lung cancer cell line PC9, and Gefitinib-resistant cell lines PC9GR and H1975. […] See FIG. 3 for the effect diagram of a specific product.

[2] = test system: lung cancer cell lines PC9, PC9GR and H1975; assay: CCK-8 proliferation / cell death experiment; type: cell-based
Procedure: as §1

[3] = test system: EGFR-related pathway; assay: EGFR-related pathway activation; type: cell-based
Procedure: as §1

[4] = test system: lung cancer cell lines PC9, PC9GR and H1975; assay: plate cloning (colony formation) experiment; type: cell-based
Procedure: as §1

[5] = test system: thioredoxin reductase; assay: thioredoxin reductase activity; type: biochemical
Procedure: as §1

[6] = test system: lung cancer cells; assay: Transwell migration experiment; type: cell-based
Procedure: as §1

[7] = test system: lung cancer cells; assay: Annexin V-FITC/PI double staining apoptosis assay; type: cell-based
Procedure: as §1

[8] = test system: drug-resistant subcutaneous tumors; assay: subcutaneous drug-resistant tumor model in nude mice; details: in vivo and in vitro
Procedure: as §1

[9] = target: T1, GPX4 protein (Homo sapiens, UniProt P36969); assay: GPX4 protein degradation; type: cell-based; details: by promoting autophagy and inducing GPX4 ubiquitination
T1 construct: endogenous in cells; host or cells: Gefitinib-resistant lung cancer cells (PC9GR / H1975; not specified which)
T1 sequence (P36969 1-197): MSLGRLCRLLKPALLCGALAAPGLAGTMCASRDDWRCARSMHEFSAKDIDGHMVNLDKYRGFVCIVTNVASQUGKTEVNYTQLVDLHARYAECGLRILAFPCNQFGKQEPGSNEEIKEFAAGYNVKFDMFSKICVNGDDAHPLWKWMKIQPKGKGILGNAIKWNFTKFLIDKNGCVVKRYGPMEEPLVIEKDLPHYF
Procedure: as §1

COc1cc2ncnc(Nc3ccc(F)c(Cl)c3)c2cc1OCCCC#[C][Au][PH]12CN3CN(CN(C3)C1)C2 [Embodiment 8]
intracellular mitochondrial damage [1]: induces intracellular mitochondrial damage | intracellular oxidative stress level [1]: severely induces elevation of the intracellular oxidative stress level | ferroptosis ([1]; Gefitinib-resistant lung cancer cells): resulting in ferroptosis | lung cancer cell death over time (FIG. 2A) ([2]; CCK8): induces lung cancer cell death in a time-dependent manner | inhibition of proliferation ([2]; CCK-8 and plate cloning, PC9, PC9GR, H1975): obvious effect on inhibiting proliferation | EGFR-related pathway activation [3]: inhibits EGFR-related pathway activation | colony formation ability of lung cancer cells (FIG. 2B) [4]: significantly inhibits the colony formation ability | thioredoxin reductase activity [5]: inhibits thioredoxin reductase activity | migration ability of lung cancer cells (FIG. 2C) [6]: significantly inhibited the migration ability | apoptosis of lung cancer cells (FIG. 2D) [7]: significantly promoted the apoptosis | performance compared with Gefitinib against drug-resistant tumors [8]: performs better than Gefitinib | GPX4 protein level [9]: degrades GPX4 protein
